The source of these data is patent publication US3962230A, “P-hydroxymethylphenylacetamidocephalosporins” (SmithKline & French Laboratories, Inc., priority 1975, dated 1976).

One assay relates to Pseudomonas sp. As to the kind of experiment: MIC vs Pseudomonas sp. It counts as cell-based.
A further assay has as its system Staph. Villaluz. As to the kind of experiment: MIC vs Staph. Villaluz. Format: cell-based.
Another assay concerns Salmonella. Briefly: MIC vs Salmonella. Format: cell-based.
In assay [1] the test system is E. coli. As to the kind of experiment: ED50 vs E. coli. The conditions noted are these: Escherichia coli. It counts as in vivo.
In assay [2] the test system is Klebs. pneumo. As to the kind of experiment: MIC vs Klebs. pneumo. It counts as cell-based.
For the next assay, the system named is Strep. faecalis. As to the kind of experiment: MIC vs Strep. faecalis. The conditions noted are these: Enterococcus faecalis. Format: cell-based.
The subject of assay [3] is Klebs. pneumo. Briefly: ED50 vs Klebs. pneumo. Format: in vivo.
The subject of the next assay is Serratia marc. As to the kind of experiment: MIC vs Serratia marc. Format: cell-based.
In assay [4] the test system is E. coli. As to the kind of experiment: MIC vs E. coli. Format: cell-based.
For the next assay, the system named is S. aureus. As to the kind of experiment: MIC vs S. aureus. It counts as cell-based. The settings on record: Staphylococcus aureus.
The test system of the next assay is Entero. aerog. Briefly: MIC vs Entero. aerog. Format: cell-based.
In another assay the test system is Shigella. As to the kind of experiment: MIC vs Shigella. Format: cell-based.
Where [5] appears, read: Escherichia coli, second column, read-out: MIC.

Where “and” joins values, the source holds several entries; their conditions need not be identical. Equal values may be shown once. Read-outs that look alike come from different tables or passages of the source.

The MIC is the lowest concentration that inhibits growth of the organism. Broadly, the ED50 is the midpoint of the dose-response relation. Lower therefore signals greater potency.

On to `CC(=O)OCC1=C(C(=O)O)N2C(=O)[C@@H](NC(=O)C(N)c3ccc(CO)cc3)[C@H]2SC1` (mixture of isomers) [Compound 37316, 7β-(DL-α-amino-p-hydroxymethylphenylacetamido)cephalosporanic acid], for which the MIC was more than 200 µg/mL in the assay with Pseudomonas sp.; 100 µg/mL with Staph. Villaluz; 12.5 µg/mL and 25 μg/me in the assay on Salmonella; 25 µg/mL against Klebs. pneumo. [2] (second column); 200 µg/mL in the assay on Strep. faecalis; more than 200 µg/mL against Serratia marc.. In addition, the MIC in the assay with E. coli [4] came out at 50 µg/mL; in the assay with E. coli [4] (setting [5]), 25 µg/mL; in the assay with S. aureus (first column), 12.5 µg/mL; in the assay on S. aureus (second column), 6.3 µg/mL. In addition, the ED50 is more than 50 mg/kg in the assay on E. coli [1] (po), 8.7 mg/kg with E. coli [1] (sc), more than 50 mg/kg with Klebs. pneumo. [3] (po) and 20 mg/kg in the assay with Klebs. pneumo. [3] (sc).
`CC1=C(C(=O)O)N2C(=O)[C@@H](NC(=O)C(N)c3ccc(CO)cc3)[C@H]2SC1` (mixture of isomers) [Compound 47216, 7β-(DL-α-Amino-p-hydroxymethylphenylacetamido)desacetoxycephalosporanic acid]: the MIC was more than 200 µg/mL against Pseudomonas sp.; 200 µg/mL against Staph. Villaluz; 25 µg/mL in the assay with Salmonella; 25 µg/mL against Klebs. pneumo. [2] (first column); 25 µg/mL in the assay with Klebs. pneumo. [2] (second column); 50 µg/mL against Entero. aerog.. Further, the MIC against Shigella was 25 µg/mL; in the assay with Serratia marc., more than 200 µg/mL; in the assay on E. coli [4] (Escherichia coli, first column, read-out: MIC), 25 µg/mL; in the assay on E. coli [4] (setting [5]), 50 µg/mL; in the assay on S. aureus (first column), 6.3 µg/mL; against S. aureus (second column) it was 25 µg/mL. Further, the ED50 in the assay on E. coli [1] (po) is 29 mg/kg; in the assay with E. coli [1] (sc) it was 33 mg/kg; with Klebs. pneumo. [3] (po), 50 mg/kg; in the assay with Klebs. pneumo. [3] (sc) it was more than 50 mg/kg.
